{
  "source": "patent US20030065030A1",
  "about": "“Autonomic controlling agents and health drinks and foods” (priority 2001, published 2003)",
  "tested_on": "2DG hyperglycemic rats",
  "assay": "anti-hyperglycemia in the 2DG hyperglycemic rats",
  "format": "in vivo, rat",
  "conditions": "10 ng intracranially administered",
  "excerpt": "Since blood glucose levels are expected to be reduced when the activity of the autonomic nervous system is controlled by carnosine at a low dose, the effect of carnosine on anti-hyperglycemia in the 2DG hyperglycemic rats was investigated according to the method of Chun et al. (Brain Research 809:165-174, 1998). Wistar male rats (initial weight, about 250 g) were used that had been acclimated for at least 10 days to an environment in a room illuminated with an incandescent light of 80 lux on the average for 12 hours at room temperature (24 +/− 1° C.) with free access to the feed.\nThree days before the experiment, rats under anesthesia with pentobarbital (35 mg/kg body weight, intraperitoneal administration) received the insertion of a cardiac catheter comprising a silastic tubing (Dow Corning, Midland, Mich.) and a polyethylene tubing (Clay Adams, Parsippany, N.J.) into the right atrium and a polyethylene tubing into the right lateral cerebral ventricle (LCV). On the day of the experiment, carnosine dissolved in physiological saline was administered to the rats intracranially (0.01 ml) or intraperitoneally (0.1 ml) with the simultaneous administration into the rat LCV of 80 μmol 2-deoxy-D-glucose (2DG, 0.01 ml). The control rats received physiological saline instead of carnosine and an artificial cerebrospinal fluid in stead of 2DG, each at the same amount.\nSixty minutes after the administration of 2DG into the LCV, 300 μl of blood was taken via the cardiac catheter and the plasma level of glucose was determined. The glucose concentrations in the plasma were measured using the Fuji-Dri-chem system (Fuji Film Tokyo) according to the glucose oxidase method. Changes in plasma concentrations of glucose were expressed as a ratio (%) relative to the control value at 90 minutes after 2DG administration set at 100. Four or five rats were used in the experiments. Data were tested with ANOVA (p<0.05) and were expressed as mean +/− standard error.",
  "data": [
    {"smiles": "Cn1cncc1C[C@H](NC(=O)CCN)C(=O)O", "note": "[anserine, reference compound]", "values": [
      {"measurement": "effect on hyperglycemia", "value": "did not suppress hyperglycemia"}
    ]}
  ]
}
